Measurements taken from patent US6545032B1, “Synthesis of [3,5,7]-H-imidazo[1,5-a] imidazol-2(3H)-one compounds” (Torrey Pines Institute for Molecular Studies, priority 1999, dated 2003).

How the values were obtained:
[1] = target: T1, mu opiate receptor (Rattus norvegicus, UniProt P33535); assay: Inhibition of [3H]DAMGO binding to the mu opiate receptor in rat brain homogenates; set-up: Mean: unit not given beside the values; conditions: 0.08 mg of compound per milliliter, 7 nM 3H-labeled DAMGO, rat brain membranes; for % Bound: [3H]DAMGO bound; for Mean: mean bound radioactivity of [3H]DAMGO; for Minus NSB*: mean minus non-specific binding; for % Inhibition: percent inhibition of DAMGO binding
T1 construct: from tissue; host or cells: rat brain membranes/homogenate
T1 sequence (P33535 whole entry): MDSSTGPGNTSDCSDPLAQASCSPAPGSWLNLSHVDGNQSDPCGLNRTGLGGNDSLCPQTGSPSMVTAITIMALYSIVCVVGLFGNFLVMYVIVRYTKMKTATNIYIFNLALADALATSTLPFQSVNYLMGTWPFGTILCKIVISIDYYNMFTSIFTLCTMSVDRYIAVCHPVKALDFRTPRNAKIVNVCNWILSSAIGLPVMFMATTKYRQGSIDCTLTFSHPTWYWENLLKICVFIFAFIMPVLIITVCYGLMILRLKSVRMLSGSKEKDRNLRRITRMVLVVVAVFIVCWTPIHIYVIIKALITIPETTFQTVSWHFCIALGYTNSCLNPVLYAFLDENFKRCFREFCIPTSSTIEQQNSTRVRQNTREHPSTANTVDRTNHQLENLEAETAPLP
Procedure: The previously prepared [3,5,7]-1H-imidazo[1,5-a]-imidazol-2(3H)-one library of individual compounds was screened for the ability to inhibit the binding of [^3H] [D-Ala^2,MePhe^4,Gly^5-ol]enkephalin (DAMGO) that is known to bind specifically to the mu opiate receptor present in rat brain homogenates following literature procedures. [Dooley et al., Science, 266:2019(1994); U.S. Pat. No. 5,763,193.]
Preparation of rat brain membranes and the receptor binding assay were carried out as described in Dooley et al., Life Sci., 52:1509(1993). Each tube in the screening assay contained 0.08 mg of compound mixture per milliliter, 0.5 mL of membrane suspension (0.1 mg of protein), 7 nM ^3H-labeled DAMGO [specific activity 36 Ci/mmol, obtained from the National Institute on Drug Abuse (NIDA) repository through Chiron Mimotopes PeptideSystems (San Diego, Calif.) and […] of peptide mixture in 50 mM Tris-HCl buffer (pH 7.4). The final volume was 0.65 mL. The results of these screenings are shown in the table, below, wherein the “R” groups are as discussed for Example 1. The results are reported as percent inhibition of DAMGO binding.

[2] = target: T2, kappa opiate receptor (Cavia porcellus, UniProt P41144); assay: Inhibition of tritiated U69,593 binding to the kappa opiate receptor in guinea pig brain homogenates; set-up: Mean: unit not given beside the values; conditions: 3 nm tritiated U69,593, guinea pig brain membranes; for % Bound: [3H]U69,593 bound; for % Inhibition: inhibition of [3H]U69,593 binding; for Mean: mean bound radioactivity of [3H]U69,593, 2.5 hours 25° C.; for Minus NSB: mean minus non-specific binding
T2 construct: guinea pig cortices and cerebella were homogenized in 40 mL of Buffer A; from tissue; host or cells: guinea pig cortices and cerebella, crude membrane suspension
T2 sequence (P41144 whole entry): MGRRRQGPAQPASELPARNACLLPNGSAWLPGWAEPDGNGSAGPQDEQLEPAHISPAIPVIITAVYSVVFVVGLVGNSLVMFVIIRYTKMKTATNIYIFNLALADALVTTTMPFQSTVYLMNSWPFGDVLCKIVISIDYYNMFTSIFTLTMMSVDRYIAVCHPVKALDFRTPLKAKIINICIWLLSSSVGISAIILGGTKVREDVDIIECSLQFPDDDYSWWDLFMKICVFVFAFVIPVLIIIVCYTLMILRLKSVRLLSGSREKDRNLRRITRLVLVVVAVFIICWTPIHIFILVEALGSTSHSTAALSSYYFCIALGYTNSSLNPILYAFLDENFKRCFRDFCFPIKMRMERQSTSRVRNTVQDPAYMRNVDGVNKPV
Procedure: The above-prepared library of individual compounds was screened for the ability to inhibit the binding of tritiated Compound U69,593 that is known to bind specifically to the kappa opiate receptor present in guinea pig brain homogenates following literature procedures. [Dooley et al., J. Biol. Chem., 273(30) 18848-18856 (1998)]
Briefly, guinea pig cortices and cerebella were homogenized in 40 mL of Buffer A [50 mM Tris-HCl, pH 7.4] at 4° C. Homogenates were centrifuged [Beckman® J2-HC, 35, 300×g] for 10 minutes. The pellets were resuspended in fresh buffer and incubated at 37° C. for 40 minutes. Following incubation, the suspensions were centrifuged as before, the resulting pellets resuspended in 100 volumes of Tris buffer, and the suspensions combined. Membrane suspensions were prepared and used on the same day. Protein content of the crude homogenates was determined by the method of Bradford, Anal. Biochem., 72:248-252 (1976).
Each assay tube contained 0.5 mL of membrane suspension, 3 nm of tritiated Compound U69,593 [(5a,7a,8b)-(−)-N-methyl-N-(7-(1-pyrrolidinyl)-1-oxaspiro(4,5)dec-8-yl)-benzeneacetamide; Lahti et al., European J. Pharmacol., 109:281-284(199-85)] in a total volume of 0.65 mL. Assay tubes were incubated for 2.5 hours a 25° C. The assay was then filtered through GF-B filters on a Tomec™ harvester (Orange, Conn.). The filters were subsequently washed with 6 mL of 50 mM Tris-HC1, pH 7.4 at 4° C. Bound radioactivity was counted on a Wallace™ Beta-plate Liquid Scintillation Counter (Piscataway, N.J.). Unlabeled U50, 488 [(trans-(dl)-3,4-dichloro-N-methyl-N-[2-(1-pyrrolidinyl)cyclohexyl]-benzeneacetamide) methane sulfonate hydrate; Lahti et al., Life Sci., 31:2257-xx(1982) and Von Voightlander et al., J. Pharmacol. Exp. Ther., 224:7 (1983)] was used as a competitive inhibitor to generate a standard curve and determine nonspecific binding. The results of these assays are shown in the table, below, wherein the “R” groups are as discussed for Example 1.

| Compound | % Bound [1] [%] | Mean [1] | Minus NSB* [1] | % Inhibition [1] [%] | % Bound [2] [%] | % Inhibition [2] [%] | Mean [2] | Minus NSB [2] |
| --- | --- | --- | --- | --- | --- | --- | --- | --- |
| COc1ccc(Cc2nc(C(C)C)c3n2C(C(C)C)C(=O)N3)cc1OC (racemic) [Pool 87] | 59 | 870.35 | 562.35 | 41 | 81.337 | 18.663 | 1749.65 | 842.65 |
| CC(C)c1nc(Cc2ccccc2)n2c1NC(=O)C2C(C)C (racemic) [Pool 110] | 54 | 818.7 | 510.70 | 46 | 73.451 | 26.549 | 1667.95 | 760.95 |
| CC(C)c1nc(CCCc2ccccc2)n2c1NC(=O)C2C(C)C (racemic) [Pool 113] | 43 | 716.3 | 408.30 | 57 | 61.597 | 38.403 | 1545.15 | 638.15 |
| CCCc1nc(C(C)C)c2n1C(C(C)C)C(=O)N2 (racemic) [Pool 121] | 54 | 826.45 | 518.45 | 46 | 60.468 | 39.532 | 1533.45 | 626.45 |
| CCCCCCc1nc(C(C)C)c2n1C(C(C)C)C(=O)N2 (racemic) [Pool 122] | 53 | 817.3 | 509.30 | 47 | 51.805 | 48.195 | 1443.7 | 536.70 |
| CC(C)c1nc(C(C)C)n2c1NC(=O)C2C(C)C (racemic) [Pool 123] | 55 | 832.5 | 524.50 | 45 | 57.124 | 42.876 | 1498.8 | 591.80 |
| Cc1nc(C(C)C)c2n1C(C(C)C)C(=O)N2 (stereo not drawn) [Pool 3] | 70 | 974.05 | 666.05 | 30 | 54.228 | 45.772 | 1468.8 | 561.80 |
| Cc1nc(C(C)C)c2n1C(CC(C)C)C(=O)N2 (stereo not drawn) [Pool 4] | 70 | 980.1 | 672.10 | 30 | 95.420 | 4.580 | 1895.55 | 988.55 |
| CCC(C)C1C(=O)Nc2c(C(C)C)nc(C)n21 (stereo not drawn) [Pool 5] | 78 | 1052.8 | 744.80 | 22 | 75.043 | 24.957 | 1684.45 | 777.45 |
